Values quoted from earlier work in US20200289439A1, “Process of Manufacturing a Stable, Ready To Use Infusion Bag For An Oxidation Sensitive Formulation” (InnoPharma Licensing, LLC, priority 2013, published 2020).

How the values were obtained:
[1] = intravenous; therapeutic dosing, up to 4,000 mg daily
[2] = six adult volunteers

mean intravenous Cmax compared to oral route ([2]; intravenous vs oral): nearly two
mean intravenous Cmax compared to rectal route ([2]; intravenous vs rectal): four fold higher
SMILES: CC(=O)Nc1ccc(O)cc1 [Acetaminophen, N-(4-hydroxyphenyl)acetamide]
hepatotoxicity [1]: rarely associated with hepatotoxicity
